Data set [1] concerns cultured primary human myocytes. The experiment in a line: fatty acid oxidation rates in cultured primary human myocytes (radiolabeled CO2 release). Type of data set: cell-based. The following applies: 48 hr, n=6; for differences from control in fatty acid oxidation: ethanol control, 30, 100 and 300 micromolar; for promotion of fatty acid oxidation (complete oxidation, CO2): normal primary human myocytes, 30, 100 and 300 micromolar, radiolabeled oleic acid, compared to EPAEE. From the text:
FIG. 1 is a graph of the data obtained from biology tests described herein of EPA and DHA ascorbates on fatty acid oxidation rates in cultured on normal primary human myocytes. The vertical axis is the complete oxidation (nmol CO2/mg protein). The statistical variance is shown by the “T” at the top of each bar. The #1 bar (solid coral) is the ethanol as control; #2 bars (solid gray, from left to right are 30, 100 and 300 micromolar) of EPA; #3 bars (solid green, from left to right are 30, 100 and 300 micromolar) of EPAX; #4 bars (hash red and white, from left to right are 30, 100 and 300 micromolar) of DHAX; and #5 bars (solid red, from left to right are 30, 100 and 300 micromolar) of EPAEE.
Effect of EPA and DHA ascorbates on fatty acid oxidation rates in cultured primary human myocytes were determined and discussed below.
Cell-based multiwell assays for the detection of substrate accumulation and oxidation are described in literature (A. J. Wensaas, et al., J. of Lipid Research 48, 961-967 (2007)) for detecting the accumulation as well as the subsequent oxidation of ^14C labeled substrates in cultured cells. Accumulation is monitored in real time by an established scintillation proximity assay in which the scintillator is embedded in the plate base primarily detecting cell-associated radiolabel. This method was applied, and the effect of EPA and DHA ascorbates on fatty acid oxidation rates in cultured primary human myocytes was determined The compounds tested were EPA, EPAX (EPAX), DHAX (DHAX), and EPAEE.
Cultured human primary myocytes from normal (non-diabetic, non-obese) subjects
Cells treated with 30, 100 and 300 micromolar of each compound for 48 hr
Cells grown in the presence of radiolabeled oleic acid
Radiolabeled CO2 released during the incubation was measured.
Each compound was tested 6 times (n=6)

The conditions of data set [2]: cited from earlier work.

Consider `CC/C=C\C/C=C\C/C=C\C/C=C\C/C=C\C/C=C\CCC(=O)OC[C@H](O)[C@H]1OC(=O)C(O)=C1O` [DHA ascorbate], for which, in data set [1], the “differences from control in fatty acid oxidation” value is “not statistically significant” and the “promotion of fatty acid oxidation (complete oxidation, CO2)” value is on record as “to a lesser degree”.

Regarding `CC/C=C\C/C=C\C/C=C\C/C=C\C/C=C\CCCC(=O)OC[C@H](O)[C@H]1OC(=O)C(O)=C1O` [EPA ascorbate], in data set [1], the “differences from control in fatty acid oxidation” value was “not statistically significant” and the “promotion of fatty acid oxidation (complete oxidation, CO2)” value is given as “distinct trend”.

As for `CCCCCCCCCCCCCCCC(=O)OC[C@H](O)[C@H]1OC(=O)C(O)=C1O` [Palmitoyl ascorbate, 6-O-palmitoyl L-ascorbate], the “solubility in aqueous ethanol” value in data set [2] (aqueous ethanol) was “soluble”. Further, the solubility in water result in data set [2] (water) is listed as “sparingly soluble”.

The values above are taken from patent publication US20150374660A1, “Ascorbate Esters of Omega-3 Fatty Acids and Their Formulations and Uses” (JIVA PHARMA, INC., priority 2013, published 2015).
